Reference: US10112926B2 (priority 2014, dated 2018)
Where a name gives a salt, the structure may show the parent alone.

How the values were obtained:
[1] = target: Vps34 (Homo sapiens (Human), UniProt Q8NEB9); details: read-out: Assay C VPS34 IC50
[2] = target: PI 3-kinase alpha (Homo sapiens (Human), UniProt P42336); details: read-out: Assay A PI3Kα IC50
[3] = target: PI 3-kinase alpha (Rat-1 pBABEpuro Myr-HA-hp110 alpha cells) (Homo sapiens (Human), UniProt P42336); assay: cell-based
Protocol: (§1) Cellular Assays for PI 3-Kinase Alpha (H2), Beta (I2) and Delta (J2): HTRF (Homogeneous Time Resolved Fluorescence) Format
(§2) All cell lines were cultivated in complete growth medium (DMEM high glucose GlutaMAX™ Pyruvate, 10% (v/v) fetal bovine serum, 0.1 mM MEM NEAA, 25 mM HEPES, puromycin 10 μg/mL, 100 U/ml Penicillin, 100 μg/ml Streptomycin) to 90% confluency at 37° C./5% CO2/90% humidity in a humidified CO2 incubator and were split twice a week.
(§3) Semi-automated preparation of cell lysates: For low (inhibited) controls, 0.9 mM NVP-BGT226-AF-1 in 90% (v/v) DMSO was added to the compound master plate. For compound testing, the cells were seeded at a density of 4000 (Rat-1_PI3Kdelta), 8000 (Rat-1_PI3Kalpha), or 6500 (Rat-1_PI3Kbeta) cells in 30 μl complete growth medium into cell culture treated 384-well plates and were grown at 37° C./5% CO2/90% humidity for 24 h. 10 μl of the compound predilutions were transferred to the cells. After treatment with compound for 1 h, medium was removed and cells were lysed by the addition of 20 μl lysis buffer supplemented with blocking buffer. Detection of p-AKT(Ser473) was performed with the HTRF pAKT (Ser473) assay kit according to the manufacturer's instructions using 16 μl of cell lysate in a total detection volume of 20 μl.

[4] = target: PI 4-kinase beta (Homo sapiens (Human), UniProt Q9UBF8); details: read-out: Assay D PI4Kβ IC50
PI 4-kinase beta, sequence (Q9UBF8 whole entry): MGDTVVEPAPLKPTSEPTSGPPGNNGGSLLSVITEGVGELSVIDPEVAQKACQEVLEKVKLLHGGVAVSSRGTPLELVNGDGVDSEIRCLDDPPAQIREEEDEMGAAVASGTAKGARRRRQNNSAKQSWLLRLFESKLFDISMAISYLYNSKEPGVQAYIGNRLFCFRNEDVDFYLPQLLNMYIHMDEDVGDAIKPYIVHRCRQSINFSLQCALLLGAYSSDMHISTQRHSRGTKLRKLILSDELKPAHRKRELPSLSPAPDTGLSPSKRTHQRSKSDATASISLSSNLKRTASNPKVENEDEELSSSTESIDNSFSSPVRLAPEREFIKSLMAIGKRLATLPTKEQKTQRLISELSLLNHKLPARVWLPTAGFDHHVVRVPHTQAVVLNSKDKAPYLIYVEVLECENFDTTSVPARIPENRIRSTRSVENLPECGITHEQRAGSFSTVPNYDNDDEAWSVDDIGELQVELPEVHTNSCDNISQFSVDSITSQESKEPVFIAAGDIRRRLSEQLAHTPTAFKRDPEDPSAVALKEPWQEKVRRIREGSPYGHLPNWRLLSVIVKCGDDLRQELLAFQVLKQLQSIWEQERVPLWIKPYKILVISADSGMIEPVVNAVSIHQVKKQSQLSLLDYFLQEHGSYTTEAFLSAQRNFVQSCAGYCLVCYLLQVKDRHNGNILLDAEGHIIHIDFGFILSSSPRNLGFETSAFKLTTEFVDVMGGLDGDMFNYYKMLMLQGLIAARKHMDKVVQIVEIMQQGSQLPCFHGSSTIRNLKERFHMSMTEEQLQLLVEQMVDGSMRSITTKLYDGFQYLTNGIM

[5] = target: PI 3-kinase beta (Homo sapiens (Human), UniProt P42338); details: read-out: Assay B PI3Kβ IC50
PI 3-kinase beta, sequence (P42338 whole entry, looked up): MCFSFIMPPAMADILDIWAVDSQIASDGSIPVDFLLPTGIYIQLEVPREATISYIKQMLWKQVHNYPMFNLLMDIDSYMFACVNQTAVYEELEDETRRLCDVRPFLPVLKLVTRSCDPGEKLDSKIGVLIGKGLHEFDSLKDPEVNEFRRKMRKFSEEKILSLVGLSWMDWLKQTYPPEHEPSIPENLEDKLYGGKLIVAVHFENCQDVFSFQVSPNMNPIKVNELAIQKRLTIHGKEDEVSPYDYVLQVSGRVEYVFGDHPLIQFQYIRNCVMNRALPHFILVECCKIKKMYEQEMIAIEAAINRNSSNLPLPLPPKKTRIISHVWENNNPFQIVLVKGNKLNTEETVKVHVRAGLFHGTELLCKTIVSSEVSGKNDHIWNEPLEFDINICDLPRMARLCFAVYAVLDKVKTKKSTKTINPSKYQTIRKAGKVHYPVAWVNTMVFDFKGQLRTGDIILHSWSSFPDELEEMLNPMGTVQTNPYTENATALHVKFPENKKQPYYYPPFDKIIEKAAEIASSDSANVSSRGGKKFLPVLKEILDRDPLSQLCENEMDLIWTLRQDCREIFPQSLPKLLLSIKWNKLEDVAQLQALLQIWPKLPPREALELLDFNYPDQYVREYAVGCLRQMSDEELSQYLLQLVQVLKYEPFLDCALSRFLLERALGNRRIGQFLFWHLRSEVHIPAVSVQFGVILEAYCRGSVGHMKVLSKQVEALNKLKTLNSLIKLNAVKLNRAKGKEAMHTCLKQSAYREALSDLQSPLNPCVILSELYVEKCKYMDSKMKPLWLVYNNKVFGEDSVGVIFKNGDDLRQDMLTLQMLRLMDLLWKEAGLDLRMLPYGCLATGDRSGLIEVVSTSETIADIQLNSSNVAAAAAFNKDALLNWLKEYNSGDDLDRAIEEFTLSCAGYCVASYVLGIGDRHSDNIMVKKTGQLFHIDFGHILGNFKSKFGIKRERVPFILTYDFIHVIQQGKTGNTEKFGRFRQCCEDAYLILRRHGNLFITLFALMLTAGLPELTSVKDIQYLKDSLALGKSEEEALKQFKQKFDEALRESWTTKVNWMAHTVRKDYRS
PI 3-kinase beta, sequence (P27986 whole entry partner, looked up): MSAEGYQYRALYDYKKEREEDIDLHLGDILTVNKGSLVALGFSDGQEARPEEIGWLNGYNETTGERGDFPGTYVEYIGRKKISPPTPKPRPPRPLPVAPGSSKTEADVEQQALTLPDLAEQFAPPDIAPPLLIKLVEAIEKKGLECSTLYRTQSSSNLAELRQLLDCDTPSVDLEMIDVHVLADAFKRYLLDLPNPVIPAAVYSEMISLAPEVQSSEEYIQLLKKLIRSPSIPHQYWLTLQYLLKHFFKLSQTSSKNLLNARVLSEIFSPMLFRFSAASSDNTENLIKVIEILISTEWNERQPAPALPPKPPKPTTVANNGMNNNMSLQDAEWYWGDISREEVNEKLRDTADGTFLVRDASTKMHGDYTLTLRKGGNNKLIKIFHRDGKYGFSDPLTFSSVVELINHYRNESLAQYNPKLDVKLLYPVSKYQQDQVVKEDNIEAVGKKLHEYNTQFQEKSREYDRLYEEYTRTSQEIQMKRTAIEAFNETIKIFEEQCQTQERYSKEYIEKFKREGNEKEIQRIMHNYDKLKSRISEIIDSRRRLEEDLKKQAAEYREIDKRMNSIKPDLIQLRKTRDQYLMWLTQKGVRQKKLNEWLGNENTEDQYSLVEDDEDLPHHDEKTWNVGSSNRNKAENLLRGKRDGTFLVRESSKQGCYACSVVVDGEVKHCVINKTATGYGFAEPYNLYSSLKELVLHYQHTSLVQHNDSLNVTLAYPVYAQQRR

[6] = target: PI 3-kinase beta (Rat-1 pBABEpuro Myr-HA-hp110 beta cells) (Homo sapiens (Human), UniProt P42338); assay: cell-based
PI 3-kinase beta (Rat-1 pBABEpuro Myr-HA-hp110 beta cells), sequence (P42338 whole entry, looked up): as the sequence (P42338 whole entry, looked up) above
PI 3-kinase beta (Rat-1 pBABEpuro Myr-HA-hp110 beta cells), sequence (Q63787 whole entry partner, looked up): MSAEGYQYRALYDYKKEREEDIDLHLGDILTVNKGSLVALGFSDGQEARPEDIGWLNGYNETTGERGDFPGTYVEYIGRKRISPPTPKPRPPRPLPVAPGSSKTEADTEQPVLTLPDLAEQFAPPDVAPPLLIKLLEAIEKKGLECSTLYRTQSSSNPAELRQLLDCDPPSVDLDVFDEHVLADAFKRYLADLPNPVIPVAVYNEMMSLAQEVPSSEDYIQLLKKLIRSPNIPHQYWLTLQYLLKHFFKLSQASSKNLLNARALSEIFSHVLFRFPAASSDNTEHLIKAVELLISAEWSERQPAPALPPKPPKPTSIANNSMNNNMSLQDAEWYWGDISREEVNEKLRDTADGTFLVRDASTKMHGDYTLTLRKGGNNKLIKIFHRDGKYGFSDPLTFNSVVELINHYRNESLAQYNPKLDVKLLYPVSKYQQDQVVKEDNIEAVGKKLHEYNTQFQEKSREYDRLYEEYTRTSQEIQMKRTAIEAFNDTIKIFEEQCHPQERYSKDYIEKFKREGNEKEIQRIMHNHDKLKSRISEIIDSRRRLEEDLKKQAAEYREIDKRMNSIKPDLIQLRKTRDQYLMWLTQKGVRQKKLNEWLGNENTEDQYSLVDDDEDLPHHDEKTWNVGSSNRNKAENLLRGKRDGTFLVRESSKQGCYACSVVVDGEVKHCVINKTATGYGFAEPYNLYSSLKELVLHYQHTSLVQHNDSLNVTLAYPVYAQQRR
Protocol: as §1, §2, §3

Vps34, sequence (Q8NEB9 whole entry): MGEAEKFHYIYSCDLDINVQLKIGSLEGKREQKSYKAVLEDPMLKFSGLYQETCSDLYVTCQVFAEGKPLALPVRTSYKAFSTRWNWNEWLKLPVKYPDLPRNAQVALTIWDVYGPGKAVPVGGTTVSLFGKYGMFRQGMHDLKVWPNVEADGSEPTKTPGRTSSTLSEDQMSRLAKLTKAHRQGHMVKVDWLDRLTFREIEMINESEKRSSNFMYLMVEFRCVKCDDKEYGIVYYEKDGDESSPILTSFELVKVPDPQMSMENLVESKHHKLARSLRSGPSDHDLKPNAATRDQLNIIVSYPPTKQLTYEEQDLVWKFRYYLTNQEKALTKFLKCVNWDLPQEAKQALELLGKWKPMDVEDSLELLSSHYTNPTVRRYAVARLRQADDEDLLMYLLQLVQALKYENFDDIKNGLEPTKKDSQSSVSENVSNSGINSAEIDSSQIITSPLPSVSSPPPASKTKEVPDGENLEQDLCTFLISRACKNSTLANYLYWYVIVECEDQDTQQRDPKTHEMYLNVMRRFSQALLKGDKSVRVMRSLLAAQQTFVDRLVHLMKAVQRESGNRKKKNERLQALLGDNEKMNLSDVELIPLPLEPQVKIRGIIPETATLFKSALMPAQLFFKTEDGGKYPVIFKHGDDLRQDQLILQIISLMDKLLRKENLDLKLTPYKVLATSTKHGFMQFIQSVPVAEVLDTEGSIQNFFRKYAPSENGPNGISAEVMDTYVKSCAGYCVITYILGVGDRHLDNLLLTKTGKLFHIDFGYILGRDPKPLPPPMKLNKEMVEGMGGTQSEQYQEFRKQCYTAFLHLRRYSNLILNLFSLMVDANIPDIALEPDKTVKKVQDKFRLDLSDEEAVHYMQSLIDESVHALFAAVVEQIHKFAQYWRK

Structure (SMILES)	IC50 [1] [µM]	IC50 [2] [µM]	IC50 [3] [µM]	IC50 [4] [µM]	IC50 [5] [µM]	IC50 [6] [µM]
Cc1cc(-c2cc(-c3cc(S(=O)(=O)N4CC(N(C)C)C4)ccc3C)cnc2N)on1 [Example 19.19, 5-(5-((3-(dimethylamino)azetidin-1-yl)sulfonyl)-2-methylphenyl)-3-(3-methylisoxazol-5-yl)pyridin-2-amine acetic acid salt]	> 10	3.1	> 10	8.5		
Cc1cc(-c2cc(-c3cc(S(=O)(=O)N4C[C@H](C)[C@@H](O)C4)ccc3C)cnc2N)on1 (relative stereo) [Example 101.3, trans-1-((3-(6-amino-5-(3-methylisoxazol-5-yl)pyridin-3-yl)-4-methylphenyl)sulfonyl)-4-methylpyrrolidin-3-ol]	> 10			3.6	5.1	> 10
